Source: patent publication EP2140864A2 (H. Lundbeck A/S, priority 2001, dated 2002)

Experiments:
[1] = test system: Male albino Sprague-Dawley rats; assay: Rat Social Interaction Test (SIT); format: in vivo
Method: Rats were allowed to acclimate to the animal care facility for 5 days and were housed singly for 5 days prior to testing. Animals were handled for 5 minutes per day. The design and procedure for the Social Interaction Test was carried out as previously described by Kennett, et al. (1997). On the test day, weight matched pairs of rats (± 5%), unfamiliar to each other, were given identical treatments and returned to their home cages. Animals were randomly divided into 5 treatment groups, with 5 pairs per group, and were given one of the following i.p. treatments: Example 92 (10, 30 or 100 mg/kg), vehicle (1 ml/kg) or chlordiazepoxide (5 mg/kg). Dosing was 1 hour prior to testing. Rats were subsequently placed in a white perspex test box or arena (54 x 37 x 26 cm), whose floor was divided up into 24 equal squares, for 15 minutes. An air conditioner was used to generate background noise and to keep the room at approximately 74°F. All sessions were videotaped using a JVC camcorder (model GR-SZ1, Elmwood Park, NJ) with either TDK (HG ultimate brand) or Sony 30 minute videocassettes. All sessions were conducted between 1:00 - 4:30 P.M. Active social interaction, defined as grooming, sniffing, biting, boxing, wrestling, following and crawling over or under, was scored using a stopwatch (Sportsline model no. 226, 1/100 sec. discriminability). The number of episodes of rearing (animal completely raises up its body on its hind limbs), grooming (licking, biting, scratching of body), and face washing (i.e. hands are moved repeatedly over face), and number of squares crossed were scored. Passive social interaction (animals are lying beside or on top of each other) was not scored. All behaviors were assessed later by an observer who was blind as to the treatment of each pair. At the end of each test, the box was thoroughly wiped with moistened paper towels.
Male albino Sprague-Dawley rats (Taconic Farms, NY) were housed in pairs under a 12 hr light dark cycle (lights on at 0700 hrs.) with free access to food and water.
Example 92 was dissolved in 100% DMSO (Sigma Chemical Co., St. Louis, MO). Chlordiazepoxide (purchased from Sigma Chemical Co., St. Louis, MO) was dissolved in double distilled water. The vehicle consisted of 50% DMSO (v/v). All drug solutions were made up 10 minutes prior to injection and the solutions were discarded.
Example 34 was dissolved in 5% lactic acid, v/v. The vehicle consisted of 100% dimethylacetamide (DMA) and this was used to make up all drug solutions. All drug solutions were made up fresh each day and any unused solutions were discarded at the end of the test day. The volume of drug solution administered was 1 ml/kg.
The social interaction data (time interacting, rearing and squares crossed) were subjected to a randomized, one-way ANOVA and post hoc tests conducted using the Student-Newman-Keuls test. The data were subjected to a test of normality (Shapiro-Wilk test). The data were analyzed using the GBSTAT program, version 6.5 (Dynamics Microsystems, Inc., Silver Spring, MD, 1997). All data are presented as means ± S.E.M.

[2] = biological target: T1, human histamine H1 receptor (Homo sapiens, UniProt P35367); assay: Radioligand binding, histamine H1 receptor; details: for selectivity ratio hH1: Table 10, Ki hH1 divided by Ki hGAL3
T1 construct: expressed in transfected cells
T1 sequence (P35367 whole entry): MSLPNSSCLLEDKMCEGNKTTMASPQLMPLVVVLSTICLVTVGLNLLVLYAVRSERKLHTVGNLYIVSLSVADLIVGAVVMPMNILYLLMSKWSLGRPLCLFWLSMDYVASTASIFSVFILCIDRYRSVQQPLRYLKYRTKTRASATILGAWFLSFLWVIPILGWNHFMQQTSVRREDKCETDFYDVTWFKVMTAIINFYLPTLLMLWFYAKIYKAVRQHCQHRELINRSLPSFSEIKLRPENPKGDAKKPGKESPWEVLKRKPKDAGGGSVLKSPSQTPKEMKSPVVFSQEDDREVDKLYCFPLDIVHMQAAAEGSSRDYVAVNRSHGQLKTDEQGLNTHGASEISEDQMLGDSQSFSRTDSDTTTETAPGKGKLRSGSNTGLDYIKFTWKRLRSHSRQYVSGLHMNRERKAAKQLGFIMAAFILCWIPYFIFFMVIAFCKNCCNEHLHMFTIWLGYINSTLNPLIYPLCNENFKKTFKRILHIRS
From the text: Other receptors: Cell membranes expressing human dopamine D1, D2, D4 and rat D3 receptors were purchased through BioSignal, Inc. (Montreal, Canada). Binding assays using the histamine H1 receptor; dopamine receptors; and α1A, α1E, and α2 adrenergic receptors may be carried out according to the procedures described in U.S. Patent No. 5,780,485, the disclosure of which is hereby incorporated by reference in its entirety into this application. Binding assays using the dopamine D5 receptor may be carried out according to the procedures described in U.S. Patent No. 5,882,855, the disclosure of which is hereby incorporated by reference in its entirety into this application. Binding assays for the human α1D adrenergic receptor may be carried out according to the procedures described in U.S. Patent No. 6,156,518, the disclosure of which is hereby incorporated by reference in its entirety into this application.
Binding data were analyzed using nonlinear regression and statistical techniques available in the GraphPAD Prism package (San Diego, CA). Enzymatic assay data were derived from a standard curve of reference compound data.

[3] = 100 mg/kg i.p., 1 hour prior to testing

Compound | Squares Crossed ([1]; 10 mg/kg i.p., 1 hour prior to testing) | Grooming bouts [1, 3] | Rearings [1, 3] | selectivity ratio hH1 [2] | anxiolytic profile in the Social Interaction Test (conclusion) ([1]; overall conclusion of the study) | Ki ([2]; Table 9, read-out: hH1 Ki)
O=C1C(=Nc2cccc(C(F)(F)F)c2)c2ccccc2N1c1ccccc1 [Example 92, 1-PHENYL-3- [[3-(TRIFLUOROMETHYL)PHENYL]IMINO]-1,3-DIHYDRO-2H-INDOL-2-ONE] | 298 ± 40 | 6.8 ± 1.3 | 31 ± 4 | >100 |  | 
Cc1ccc(Nc2cc(N3CCCCC3)nc(N3CCN(c4ncccc4C(F)(F)F)CC3)n2)cc1 [Example 34] |  |  |  |  | produces an anxioltyic action | 
CN(C)c1cc(Nc2ccc(Cl)c(Cl)c2)nc(Nc2ccccc2)n1 [Example 60] |  |  |  | >100 |  | 39.9 µM
